IC50 data for 26 compounds are collected here from patent US20070249670A1, “Glycogen Phosphorylase Inhibitor Compounds and Pharmaceutical Compositions Thereof” (SMITHKLINE BEECHAM CORPORATION, priority 2004, published 2007).

The structures appear in SMILES notation. Structures can show the parent of a compound that is named as a salt.

In the test the target is T1, human liver glycogen phosphorylase a (HLGPa) (Homo sapiens, UniProt P06737).
T1 construct: creating a full-length cDNA fused at the 5′ end to codons for methionine-glycine-alanine-histidine; 6xHis tag (leader Met-Gly-Ala-His6-Gly-Gly) (N); made in house; host or cells: E. coli (bacterial expression plasmid pTXK1007LTev)
T1 sequence (P06737 2-847 limits assumed): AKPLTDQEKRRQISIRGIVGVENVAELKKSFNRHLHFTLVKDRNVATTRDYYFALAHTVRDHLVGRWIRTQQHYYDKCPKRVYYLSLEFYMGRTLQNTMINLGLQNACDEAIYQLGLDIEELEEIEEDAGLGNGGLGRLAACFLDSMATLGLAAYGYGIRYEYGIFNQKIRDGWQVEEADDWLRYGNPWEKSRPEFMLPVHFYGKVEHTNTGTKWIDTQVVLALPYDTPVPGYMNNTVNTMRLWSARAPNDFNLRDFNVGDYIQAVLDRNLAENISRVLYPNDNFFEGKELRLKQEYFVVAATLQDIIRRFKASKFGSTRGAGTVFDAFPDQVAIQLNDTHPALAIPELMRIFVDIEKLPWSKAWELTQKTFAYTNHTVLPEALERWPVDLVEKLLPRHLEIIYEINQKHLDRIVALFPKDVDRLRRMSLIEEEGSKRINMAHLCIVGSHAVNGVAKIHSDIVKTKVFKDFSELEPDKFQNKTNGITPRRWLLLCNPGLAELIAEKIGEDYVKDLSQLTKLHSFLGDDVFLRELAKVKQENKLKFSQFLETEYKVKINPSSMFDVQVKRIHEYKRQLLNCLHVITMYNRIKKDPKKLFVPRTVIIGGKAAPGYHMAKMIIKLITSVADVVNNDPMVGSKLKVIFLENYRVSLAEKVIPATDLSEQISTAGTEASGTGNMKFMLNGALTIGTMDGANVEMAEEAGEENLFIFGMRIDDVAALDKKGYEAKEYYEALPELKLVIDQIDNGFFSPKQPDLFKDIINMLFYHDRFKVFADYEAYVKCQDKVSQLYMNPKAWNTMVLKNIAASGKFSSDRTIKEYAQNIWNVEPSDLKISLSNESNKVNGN
Nature of the test: Human liver glycogen phosphorylase a enzymatic activity assay (coupled, fluorescent resorufin readout, with and without 10 mM glucose). The format is biochemical.

Setting [1] is: human liver glycogen phosphorylase a enzymatic activity assay.
The mark [2] stands for this setting: human liver glycogen phosphorylase a, table does not say whether with or without 10 mM glucose.

A word on the IC50: it is the concentration needed to halve the response being measured. A lower IC50 goes with inhibition by little substance. Under setting [1], `Cc1cc(C)c(NC(=O)Nc2cc(-c3cc(F)cc(F)c3)ccc2C(=O)N[C@H](C(=O)O)[C@@H](C)OC(C)(C)C)c(C)c1` [Example 525, N-{[3′,5′-Difluoro-3-({[(2,4,6-trimethylphenyl)amino]carbonyl}amino)-4-biphenylyl]carbonyl}-O-(1,1-dimethylethyl)-L-threonine] displayed an IC50 of 7 nM.

Under setting [2], `Cc1cc(C)c(NC(=O)Nc2cc(-c3ccc(F)c(F)c3)ccc2C(=O)N[C@H](C(=O)O)C2CCCCC2)c(C)c1` [Example 209, (2S)-Cyclohexyl({[3′,4′-difluoro-3-({[(2,4,6-trimethylphenyl)amino]carbonyl}amino)-4-biphenylyl]carbonyl}amino)ethanoic acid] yielded an IC50 of 14 nM.

With `Cc1cc(C)c(NC(=O)Nc2cc(-c3cccc(F)c3)ccc2C(=O)N[C@H](C(=O)O)[C@@H](C)OC(C)(C)C)c(C)c1` [Example 233, O-(1,1-Dimethylethyl)-N-{[3′-fluoro-3-({[(2,4,6-trimethylphenyl)amino]carbonyl}amino)-4-biphenylyl]carbonyl}-L-threonine], under setting [2], the 50% inhibitory concentration (IC50) is 23 nM.

Take `COc1ccc(-c2cc(NC(=O)Nc3c(C)cc(C)cc3C)c(C(=O)NC3(C(=O)O)CC3)s2)cc1` [Example 449, 1-({[5-[4-(methyloxy)phenyl]-3-({[(2,4,6-trimethylphenyl)amino]carbonyl}amino)-2-thienyl]carbonyl}amino)cyclopropanecarboxylic acid]: the IC50 under setting [1] is 340 nM.

Regarding `Cc1cc(C)c(NC(=O)Nc2cc(F)ccc2C(=O)N[C@H](C(=O)O)C2CCCCC2)c(C)c1` [Example 192, (2S)-Cyclohexyl({[4-fluoro-2-({[(2,4,6-trimethylphenyl)amino]carbonyl}amino)phenyl]carbonyl}amino)ethanoic acid], the IC50 under setting [1] turned out to be 120 nM.

As for `Cc1cccc(Cl)c1NC(=O)Nc1cc2ccccc2cc1C(=O)N[C@H](C(=O)O)C(C)C` [Example 36, N-[3-({[(2-chloro-6-methylphenyl)amino]carbonyl}amino)-2-naphthoyl]-L-valine], 1710 nM corresponded to half-maximal inhibition under setting [1] (IC50).

Consider `Cc1cc(C)c(NC(=O)Nc2nc3ccccc3cc2C(=O)N[C@H](C(=O)O)C2CCCCC2)c(C)c1` [Example 297, (2S)-cyclohexyl({[2-({[(2,4,6-trimethylphenyl)amino]carbonyl}amino)-3-quinolinyl]carbonyl}amino)ethanoic acid], for which 15600 nM corresponded to half-maximal inhibition under setting [2] (IC50).

As to `O=C(Nc1ccccc1Cl)Nc1cc2ccccc2cc1C(=O)N[C@@H](Cc1cnc[nH]1)C(=O)O` [Example 56, N-[3-({[(2-chlorophenyl)amino]carbonyl}amino)-2-naphthoyl]-L-histidine trifluoroacetate], the IC50 under setting [1] was 3080 nM.

In turn, `COc1ccc(-c2ccc(C(=O)N[C@H](c3nn[nH]n3)C3CCCCC3)c(NC(=O)Nc3c(C)cc(C)cc3C)c2)cc1` [Example 205, N—[(S)-cyclohexyl(1H-tetrazol-5-yl)methyl]-4′-(methyloxy)-3-({[(2,4,6-trimethylphenyl)amino]carbonyl}amino)-4-biphenylcarboxamide] yielded an IC50 under setting [2] of 140 nM.

With `COc1ccc(-c2cc(NC(=O)Nc3c(C)cc(C)cc3C)c(C(=O)N[C@@H](C(=O)O)C(C)C)s2)cc1` [Example 441, N-{[5-[4-(methyloxy)phenyl]-3-({[(2,4,6-trimethylphenyl)amino]carbonyl}amino)-2-thienyl]carbonyl}-D-valine], under setting [1], the IC50 was 2110 nM.

Under setting [1], `COc1ccccc1-c1ccc(C(=O)N[C@H](C(=O)O)C2CCCCC2)c(NC(=O)Nc2c(C)cc(C)cc2C)c1` [Example 523, (2S)-cyclohexyl({[2′-(methyloxy)-3-({[(2,4,6-trimethylphenyl)amino]carbonyl}amino)-4-biphenylyl]carbonyl}amino)ethanoic acid] had an IC50 of 8 nM.

Consider `Cc1cc(C)c(NC(=O)Nc2cc(-c3ccc4c(c3)OCCO4)ccc2C(=O)N[C@H](C(=O)O)C2CCCCC2)c(C)c1` [Example 228, (2S)-Cyclohexyl({[4-(2,3-dihydro-1,4-benzodioxin-6-yl)-2-({[(2,4,6-trimethylphenyl)amino]carbonyl}amino)phenyl]carbonyl}amino)ethanoic acid], for which half-maximal inhibition under setting [2] (IC50) required 4 nM.

Turning to `COc1ccc(-c2ccc(C(=O)N[C@@H](CC(N)=O)C(=O)O)c(NC(=O)Nc3c(C)cc(C)cc3C)c2)cc1` [Example 378, N^2-{[4′-(methyloxy)-3-({[(2,4,6-trimethylphenyl)amino]carbonyl}amino)-4-biphenylyl]carbonyl}-L-asparagine], half-maximal inhibition under setting [2] (IC50) required 100 nM.

Under setting [1], `Cc1cccc(Cl)c1NC(=O)Nc1cc2ccccc2cc1C(=O)N[C@H](Cc1ccccc1F)C(=O)O` [Example 124, N-[3-({[(2-chloro-6-methylphenyl)amino]carbonyl}amino)-2-naphthoyl]-2-fluoro-D-phenylalanine] registered a half-inhibitory concentration (IC50) of 5820 nM.

Compound `COc1ccc(-c2ccc(C(=O)N[C@H](C(=O)O)C(C)(C)C)c(NC(=O)Nc3c(Cl)cc(Cl)cc3Cl)c2)cc1` [Example 201, 3-Methyl-N-{[4′-(methyloxy)-3-({[(2,4,6-trichlorophenyl)amino]carbonyl}amino)-4-biphenylyl]carbonyl}-L-valine] showed an IC50 under setting [2] of 670 nM.

The compound `COc1ccccc1-c1ccc(C(=O)N[C@H](C(=O)O)[C@@H](C)OC(C)(C)C)c(NC(=O)Nc2c(C)cc(C)cc2C)c1` [Example 524, O-(1,1-Dimethylethyl)-N-{[2′-(methyloxy)-3-({[(2,4,6-trimethylphenyl)amino]carbonyl}amino)-4-biphenylyl]carbonyl}-L-threonine] came in with an IC50 under setting [1] of 11 nM.

`Cc1cc(C(=O)O)c(NC(=O)Nc2c(Cl)cccc2Cl)s1` [Example 388, 2-({[(2,6-dichlorophenyl)amino]carbonyl}amino)-5-methyl-3-thiophenecarboxylic acid] had a half-inhibitory concentration (IC50) under setting [2] of 19700 nM.

The compound `Cc1cccc(C)c1NC(=O)Nc1cc2ccccc2cc1C(=O)NC(C(=O)O)c1ccccc1` (centres unmarked) [Example 97, {[3-({[(2,6-dimethylphenyl)amino]carbonyl}amino)-2-naphthoyl]amino}(phenyl)acetic acid] showed an IC50 under setting [1] of 660 nM.

In turn, `O=C(Nc1c(Cl)cccc1Cl)Nc1c(C(=O)N[C@H](C(=O)O)C2CCCCC2)oc2cc(Br)ccc12` [Example 327, (2S)-({[6-Bromo-3-({[(2,6-dichlorophenyl)amino]carbonyl}amino)-1-benzofuran-2-yl]carbonyl}amino)(cyclohexyl)ethanoic acid] registered an IC50 under setting [2] of 9870 nM.

On to `Cc1cc(C)c(NC(=O)Nc2cc(-c3ccc(F)c(F)c3)ccc2C(=O)N[C@H](CC(=O)O)C(=O)O)c(C)c1` [Example 376, N-{[3′,4′-difluoro-3-({[(2,4,6-trimethylphenyl)amino]carbonyl}amino)-4-biphenylyl]carbonyl}-D-aspartic acid], for which, under setting [2], the IC50 turned out to be 110 nM.

`Cc1cc(C)c(NC(=O)Nc2cc(Cl)ccc2C(=O)N[C@H](C(=O)O)C2CCCCC2)c(C)c1` [Example 179, (2S)-({[4-Chloro-2-({[(2,4,6-trimethylphenyl)amino]carbonyl}-amino)phenyl]carbonyl}amino)(cyclohexyl)ethanoic acid] showed an IC50 under setting [1] of 35 nM.

For the compound `Cc1cccc(C)c1NC(=O)Nc1cc2ccccc2cc1C(=O)NC(C)CC(=O)O` (centres unmarked) [Example 500, 3-({[3-({[(2,6-dimethylphenyl)amino]carbonyl}amino)-2-naphthalenyl]carbonyl}amino)butanoic acid], the midpoint of inhibition under setting [1], the IC50, lay at 2140 nM.

On to `O=C(O)C[C@H](NC(=O)c1cc2ccccc2cc1NC(=O)Nc1c(Cl)cc(OC(F)(F)F)cc1Cl)C(=O)O` [Example 355, N-[(3-{[({2,6-dichloro-4-[(trifluoromethyl)oxy]phenyl}amino)carbonyl]amino}-2-naphthalenyl)carbonyl]-L-aspartic acid], for which the IC50 under setting [2] stood at 14 nM.

Consider `COc1ccc(-c2ccc(C(=O)N[C@H](C(=O)O)C3CCCCC3)c(NC(=O)Nc3c(Cl)cc(OC(F)(F)F)cc3Cl)c2)cc1` [Example 215, (2S)-Cyclohexyl({[3-{[({2,6-dichloro-4-[(trifluoromethyl)oxy]phenyl}amino)carbonyl]amino}-4′-(methyloxy)-4-biphenylyl]carbonyl}amino)ethanoic acid], for which inhibition under setting [2] was half-maximal at 9 nM (IC50).

For the compound `O=C(Nc1cc(-c2ccc(OC(F)(F)F)cc2)sc1C(=O)N[C@H](C(=O)O)C1CCCCC1)Nc1c(Cl)cccc1Cl` [Example 435, (2S)-cyclohexyl{[(3-({[(2,6-dichlorophenyl)amino]carbonyl}amino)-5-{4-[(trifluoromethyl)oxy]phenyl}-2-thienyl)carbonyl]amino}ethanoic acid], the half-maximal inhibitory concentration (IC50) under setting [1] turned out to be 1630 nM.

In turn, `COc1ccc(-c2ccc(C(=O)N[C@H](C(=O)O)C3CCCCC3)c(NC(=O)Nc3c(C)cc(C)cc3C)c2)cc1OC` [Example 229, (2S)-({[3′,4′-Bis(methyloxy)-3-({[(2,4,6-trimethylphenyl)amino]carbonyl}amino)-4-biphenylyl]carbonyl}amino)(cyclohexyl)ethanoic acid] registered an IC50 under setting [2] of 3 nM.
